Results reported in patent publication US20080039532A1, “Compounds For Specific Viral Target” (priority 2004, published 2008).
Several values for one entry are separate records, joined by “and”; a condition that tells them apart may be missing. Equal entries are not always repeated. Ends that are not written are not given here. linker‑R1‑R2‑M = not defined here

Tests used:
[1] = system: HIV-1 Strain IIIB; test: Determination of IC-50 of antiviral drugs by reverse transcriptase assay in PHA-stimulated CBMC; type: cell-based; details: for RT Results (cpm) (Day 7): +drugs 7 days, replicate columns; for anti-HIV activity (inhibition of reverse-transcriptase activity of HIV-1) as compared to native C34: standard in vitro assay
Method: Determination of IC-50 for Assessing the Activity of Antiviral Drugs Using HIV-1 Strain IIIB
The assay is performed in a 96-well plate with 500,000 PHA-stimulated CBMC (cord blood mononuclear cells) per well, 2 wells per drug concentration, with a minimum of 6 concentrations per drug. Media used is RPMI 1640 with 10% FBS, penicilin (100 U/ml), streptomycine (100 μg/ml), glutamine (2 mM), hydrocortisone (5 μg/ml), and IL-2 (20 U/ml).
Control drug stocks are prepared by adding 2 ml of buffer to the native compounds or the reactive compounds. The stocks are stored at −20 degrees Celsius. The drug concentrations were determined by ConjuChem Inc. [drawing 76] Addition of the Compound Prior to Cell Infection
Target cells are incubated with different compounds concentrations for 30-60 minutes at 37 degrees Celsius prior to addition of virus (multiplicity of infection (MOI)=0.1-1.0). Following plating, target cells are in the continuous presence of the different concentrations of inhibitor for a total of 7 days.
Following 3-4 days of incubation, each compound is replenished.
Reverse transcriptase assay is used to measure the IC50.
CC50 (cytotoxic concentration) is also evaluated for all compounds.
3TC is used as a control inhibitor

[2] = target: N36 peptide (CJC-1592) derived from the N-heptad repeat of HIV-1's gp41 glycoprotein (Human immunodeficiency virus type 1 group M subtype B, UniProt P04578); details: 1 hour incubation at room temperature; 17.5% acrylamide; compared to native C34
Method: Following the 1 hour incubation at room temperature, at least 20 micrograms of total N36/C34 peptide mixture were loaded into each well and separated using Native-polyacrylamide gel electrophoresis (17.5% acrylamide) and stained using Coomassie Brilliant Blue. Unlike SDS-PAGE, Native-PAGE allows one to visualize the formation of six-helix bundles at approximately 28 kDa composed of three central N36 peptides surrounded by three C34 peptides. The formation of this structure and its analogs among other viruses is critical to the subsequent membrane fusion events.

## SEQ ID NO: 32: C34 with linker-R1-R2-M inserted at position Asp5 (Ac-WMEWK(linker‑R1‑R2‑M)REINNYTSLIHSLIEESQNQQERNEQELL; not fully specified; reading uncertain)
[1]; Conc 125 nm
  RT Results (cpm) (Day 7): 6322 cpm and 6929 cpm and 5909 cpm
[1]; Conc 600 nm
  RT Results (cpm) (Day 7): 6477 cpm and 11889 cpm and 6030 cpm
[1]; Conc 3000 nm
  RT Results (cpm) (Day 7): 7967 cpm and 5896 cpm and 6208 cpm
[1]; inferred from anti-HIV activity, N-heptad repeat of HIV-1's gp41
  efficiency of the binding element in binding to its viral target, compared to native C34: as efficient in binding to its viral target as native C34
[1]
  anti-HIV activity (inhibition of reverse-transcriptase activity of HIV-1) as compared to native C34: as effectively as the native C34
[2]
  binding of C34 derivative to N36 peptide on Native-PAGE: does not impede C34 from binding to its target N36 peptide

## SEQ ID NO: 93: native (unreactive, non-covalent) version of C34 (Ac-WMEWDREINNYTSLIHSLIEESQNQQERNEQELL) [reference compound]
[1]; Conc 125 nm
  RT Results (cpm) (Day 7): 5854 cpm and 5040 cpm and 5219 cpm
[1]; Conc 600 nm
  RT Results (cpm) (Day 7): 4924 cpm and 5850 cpm and 5093 cpm
[1]; Conc 3000 nm
  RT Results (cpm) (Day 7): 5811 cpm and 6955 cpm and 5973 cpm
[1]
  anti-HIV activity (inhibition of reverse-transcriptase activity of HIV-1) as compared to native C34: essentially no loss in anti-HIV activity
